Measurements published in patent publication US20230332232A1, “COMPOSITIONS AND METHODS FOR DIAGNOSING AND TREATING A DYSTONIA” (Duke University, priority 2020, published 2023).

Test system: DYT1 knockin (Tor1a^delGAG/+) murine embryonic fibroblasts (MEFs)
Assay: microRNA-seq of EVs from DYT1 MEFs treated with drug, compared with non-treated DYT1 MEFs
Assay type: cell-based, mouse
Experimental: In addition to proteomic analysis, total RNA-seq and microRNA-seq was performed on RNA isolated in parallel from the EV samples of Cohort 2. As with the proteomic analysis, one biological replicate was prepared from 3 distinct biological clonal cell lines for each genotype. Here, EVs were isolated from conditioned cell culture media by 18 hour ultracentrifugation at 100,000 g. RNA was extracted using the Qiagen miRNeasy Micro Kit (Cat. No. 217084) according to the manufacturer's protocol. Two RNA fractions were extracted from each sample, one enriched in coding and non-coding RNA species>200 nt (“Total RNA” fraction) and one enriched for small RNAs<200 nt (“miRNA” fraction). RNA samples were then submitted to the Duke Sequencing and Genomic Technologies shared resource for further quality control and sequencing. Samples were assessed for concentration and integrity by Qubit and Fragment Analyzer. The miRNA fractions were 4.16 ng/μL-47.57 ng/μL and total RNA fractions were 3.8 ng/μL-43.6 ng/μL. The small RNA library was prepared using the QIAseq miRNA Library Kit (Cat No./ID: 331505) and sequenced on the Illumina NextSeq 500 High-Output platform with 75 bp single-reads. The total RNA library was prepared using the Illumina TruSeq Stranded Total RNA-seq Kit with Ribozero Gold ribosomal RNA reduction and sequenced on the Illumina NovaSeq 6000 S1 platform with 100 bp paired-end reads. Sequencer lane pooling and read depth are attached in the Excel data summary (See “RNA QC” Tab). Data processing and analysis were performed in collaboration with the Duke Genomic Analysis and Bioinformatics shared resource. RNA-seq data was processed using the TrimGalore toolkit (http://www.bioinformatics.babraham.ac.uk/projects/trim_galore), which employs Cutadapt(Martin M. (2011) EMBnet.journal. 17(1):10-12) to trim low quality bases and Illumina sequencing adapters from the 3' end of the reads. Only reads that were 20 nt or longer after trimming were kept for further analysis. Reads were mapped to the mouse genome and transcriptome ([…], et al. (2012) Nucleic Acids Res. 40(Database issue):[…]-97) using the STAR RNA-seq alignment tool (Dobin A, et al. (2013). Bioinformatics. 29(1):15-21). If the reads mapped to a single genomic location, then they were kept for subsequent analysis. Gene counts were compiled using the HTSeq tool (http://www-huber.embl.de/users/anders/HTSeq/). Only genes that had at least 10 reads in any given library were used in subsequent analysis. Normalization and differential expression was carried out using the DESeq26 Bioconductor (Huber W, et al. (2015) Nat Methods. 12(2):115-121) package with the R statistical programming environment (www.r-project.org). […] 694 miRNAs were initially examined with respect to QC, genotype, RTV effects, and ISRIB effects. This subset was the “Full miRNA” subset. FIG. 9A and FIG. 9B show the RTV effect on EV composition in DYT1 cells compared to WT cells for 279 miRNAs, respectively. […] Beginning with the 694 miRNAs in the “Full miRNA” subset, more than 60 molecules were detected in either WT cells or DYT1 cells (WT or Het UMI>60). […] The candidate miRNAs were ranked by the sum of genotype-dependent absolute Z-scores and RTV-induced absolute Z-scores (Abs Z Score Sum (Geno+RTV)). This subset was the “miRNA-Ritonavir Therapeutic Efficacy” subset and contained 201 miRNAs.

[1] = RTV-treated vs non-treated DYT1 (Het) MEF EVs
[2] = mmu-miR-34a-5p, EVs of DYT1 (Het) MEFs
[3] = mmu-miR-34c-5p, EVs of DYT1 (Het) MEFs
[4] = mmu-miR-96-5p, EVs of DYT1 (Het) MEFs
[5] = mmu-miR-125b-1-3p, EVs of DYT1 (Het) MEFs
[6] = mmu-miR-130b-3p, EVs of DYT1 (Het) MEFs
[7] = mmu-miR-140-3p, EVs of DYT1 (Het) MEFs
[8] = mmu-miR-148a-3p, EVs of DYT1 (Het) MEFs
[9] = mmu-miR-182-5p, EVs of DYT1 (Het) MEFs

**Q.** What does the source list for `CC(C)c1nc(CN(C)C(=O)N[C@H](C(=O)N[C@@H](Cc2ccccc2)C[C@H](O)[C@H](Cc2ccccc2)NC(=O)OCc2cncs2)C(C)C)cs1` [RTV, Ritonavir]?
**A.** direction of modulated EV miRNA expression (DYT1 cells, miRNA-Ritonavir Therapeutic Efficacy subset, 201 miRNAs): modulated expression in a therapeutic direction; RTV Direction Opposite dE? (EV miRNA mmu−let−7c−5p (housekeeping)): yes; RTV Direction Opposite dE? (EV miRNA mmu−miR−22−3p): yes; RTV Direction Opposite dE? (EV miRNA mmu−miR−34a−5p): yes; RTV Direction Opposite dE? (EV miRNA mmu−miR−96−5p): yes; RTV Direction Opposite dE? (EV miRNA mmu−miR−135a−5p): yes; RTV Direction Opposite dE? (EV miRNA mmu−miR−182−5p): yes; RTV Direction Opposite dE? (EV miRNA mmu−miR−183−5p): yes; RTV Direction Opposite dE? (EV miRNA mmu−miR−199a−3p): yes; RTV Direction Opposite dE? (EV miRNA mmu−miR−296−3p): yes; RTV Direction Opposite dE? (EV miRNA mmu−miR−542−5p): yes; mmu-miR-147-5p: RTVvHet Z Score [1]: −0.07; mmu-miR-181a-1-3p: RTVvHet Z Score [1]: 0.08; mmu-miR-331-5p: RTVvHet Z Score [1]: 0.00; mmu-miR-668-3p: RTVvHet Z Score [1]: 0.31; mmu-miR-1930-5p: RTVvHet Z Score [1]: 0.00; mmu-miR-1943-5p: RTVvHet Z Score [1]: 0.23; mmu-miR-1955-5p: RTVvHet Z Score [1]: 0.00; mmu-miR-3072-5p: RTVvHet Z Score [1]: −0.38; mmu-miR-3076-3p: RTVvHet Z Score [1]: 0.00; mmu-miR-3088-3p: RTVvHet Z Score [1]: 0.18; mmu-miR-6936-3p: RTVvHet Z Score [1]: 0.00; mmu-miR-7224-3p: RTVvHet Z Score [1]: −0.17; mmu-miR-467d-3p: RTVvHet Z Score [1]: −0.11; RTVvHet Z Score (mmu-let-7a-1-3p): 0.62; RTVvHet Z Score (mmu-let-7c-2-3p): 0.62; RTV Direction Opposite dE? (mmu-let-7f-5p, EVs of DYT1 (Het) MEFs): yes; RTVvHet Z Score (mmu-let-7g-5p): 0.50; RTVvHet Z Score (mmu-let-7i-3p): 1.15; RTV Direction Opposite dE? (mmu-let-7i-5p, EVs of DYT1 (Het) MEFs): yes; RTV Direction Opposite dE? (mmu-miR-30e-5p, EVs of DYT1 (Het) MEFs): yes; RTVvHet Z Score (mmu-miR-30e-3p): 0.49; RTVvHet Z Score (mmu-miR-15a-5p): 0.22; RTVvHet Z Score (mmu-miR-16-5p): 0.21; RTVvHet Z Score (mmu-miR-17-3p): 0.02; RTV Direction Opposite dE? (mmu-miR-19b-3p, EVs of DYT1 (Het) MEFs): yes; RTVvHet Z Score (mmu-miR-22-3p): 1.26; RTV Direction Opposite dE? (mmu-miR-22-3p, EVs of DYT1 (Het) MEFs): yes; RTVvHet Z Score (mmu-miR-23a-3p): 0.46; RTVvHet Z Score (mmu-miR-25-3p): 0.71; RTV Direction Opposite dE? (mmu-miR-26b-Sp, EVs of DYT1 (Het) MEFs): yes; RTVvHet Z Score (mmu-miR-29b-3p): 0.53; RTVvHet Z Score (mmu-miR-29c-3p): 1.17; RTVvHet Z Score (mmu-miR-30a-5p): 0.97; RTV Direction Opposite dE? (mmu-miR-30a-5p, EVs of DYT1 (Het) MEFs): yes; RTVvHet Z Score (mmu-miR-30b-5p): 1.23; RTVvHet Z Score (mmu-miR-30c-5p (1st line so named)): 1.38; RTVvHet Z Score (mmu-miR-30c-5p (2nd line so named)): 1.07; RTV Direction Opposite dE? (mmu-miR-30c-5p, EVs of DYT1 (Het) MEFs): yes; RTVvHet Z Score (mmu-miR-31-3p): 0.83; RTVvHet Z Score (mmu-miR-31-5p): 1.41; RTV Direction Opposite dE? (mmu-miR-31-5p, EVs of DYT1 (Het) MEFs): yes; RTVvHet Z Score (mmu-miR-32-5p): 0.75; RTVvHet Z Score (mmu-miR-33-5p): 1.52; RTVvHet Z Score (mmu-miR-34a-5p): 1.38; Abs Z Score Sum (Geno + RTV) [2]: 3.80; RTV Direction Opposite dE? [2]: yes; RTVvHet Z Score (mmu-miR-34b-5p): 1.55; RTVvHet Z Score (mmu-miR-34c-3p): 0.78; RTVvHet Z Score (mmu-miR-34c-5p): 1.33; Abs Z Score Sum (Geno + RTV) [3]: 3.36; RTV Direction Opposite dE? [3]: yes; RTV Direction Opposite dE? (mmu-miR-93-5p, EVs of DYT1 (Het) MEFs): yes; RTVvHet Z Score (mmu-miR-96-5p): 3.10; Abs Z Score Sum (Geno + RTV) [4]: 5.01; RTV Direction Opposite dE? [4]: yes; RTVvHet Z Score (mmu-miR-98-5p): 0.42; RTVvHet Z Score (mmu-miR-99a-5p): 0.73; RTVvHet Z Score (mmu-miR-101b-3p): 0.52; RTV Direction Opposite dE? (mmu-miR-103-3p, EVs of DYT1 (Het) MEFs): yes; RTVvHet Z Score (mmu-miR-106b-3p): 0.15; RTVvHet Z Score (mmu-miR-106b-5p): 0.54; RTVvHet Z Score (mmu-miR-124-3p): −1.59; RTVvHet Z Score (mmu-miR-125b-1-3p): 1.02; Abs Z Score Sum (Geno + RTV) [5]: 3.85; RTV Direction Opposite dE? [5]: yes; RTVvHet Z Score (mmu-miR-130b-3p): 1.50; Abs Z Score Sum (Geno + RTV) [6]: 3.92; RTV Direction Opposite dE? [6]: yes; RTV Direction Opposite dE? (mmu-miR-135a-5p, EVs of DYT1 (Het) MEFs): yes; RTVvHet Z Score (mmu-miR-136-3p): 1.52; RTVvHet Z Score (mmu-miR-140-3p): 2.54; Abs Z Score Sum (Geno + RTV) [7]: 4.39; RTV Direction Opposite dE? [7]: yes; RTVvHet Z Score (mmu-miR-146a-5p): 0.10; RTVvHet Z Score (mmu-miR-148a-3p): 1.86; Abs Z Score Sum (Geno + RTV) [8]: 3.69; RTV Direction Opposite dE? [8]: yes; RTVvHet Z Score (mmu-miR-148b-3p): 0.58; RTVvHet Z Score (mmu-miR-149-5p): 0.33; RTVvHet Z Score (mmu-miR-151-5p): 0.32; RTVvHet Z Score (mmu-miR-152-3p): 0.76; RTVvHet Z Score (mmu-miR-181a-5p): 0.31; RTVvHet Z Score (mmu-miR-181b-5p): 0.54; RTVvHet Z Score (mmu-miR-181c-5p): 0.88; RTVvHet Z Score (mmu-miR-182-5p): 5.33; Abs Z Score Sum (Geno + RTV) [9]: 7.27; RTV Direction Opposite dE? [9]: yes
